Experimental data as given in PubChem BioAssay AID1963421 (Molecular Pharmacology Branch, DTP, NCI, 2024).
Values joined by “and” are separate entries in the source; they are usually repeats but may differ in a detail not shown here. Equal entries are not always repeated.

Test system: 519858-162-T-J1-PDC complex spheroid growth, % test/control
Test: Anticancer human tumor 519858-162-T-J1-PDC patient-derived colon adenocarcinoma cell line growth inhibition [Asc]
Settings: for viability, T/C: stronger effect = lower value; active means viability on the fitted dose curve at most 10% of control; inactive means the rest
Summary of the method: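 Complex spheroids combining tumor cells with HUVEC endothelial cells and human MSCs, at 37 degrees C, 5% CO2; agents tested alone or combined, half-log dilutions from at or near clinical Cmax, or 10 microM if Cmax unknown.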
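Further: seven day drug exposure begun three days after spheroid seeding.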
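Wherever viability, T/C is given: 100% = DMSO vehicle wells and lower values mean less viable spheroid.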

Cn1ncnc1[C@H]1c2n[nH]c(=O)c3cc(F)cc(c23)N[C@@H]1c1ccc(F)cc1 + CCN1C(C(=O)NC23CCC(C(=O)O)(CC2)CC3)C(c2cccc(Cl)c2F)C2(C(=O)Nc3cc(Cl)ccc32)C12CCCCC2
inactive: viability, T/C (second compound 0.00949 µM, first compound 0.000316 µM) 87% | viability, T/C (second compound 0.00949 µM, first compound 0.001 µM) 86.3% | viability, T/C (second compound 0.00949 µM, first compound 0.00316 µM) 103% | viability, T/C (second compound 0.00949 µM, first compound 0.01 µM) 103% | viability, T/C (second compound 0.00949 µM, first compound 0.0316 µM) 84.8% | viability, T/C (second compound 0.00949 µM, first compound 0.1 µM) 98.1% | viability, T/C (second compound 0.03 µM, first compound 0.000316 µM) 119% | viability, T/C (second compound 0.03 µM, first compound 0.001 µM) 82.3% | viability, T/C (second compound 0.03 µM, first compound 0.00316 µM) 72% | viability, T/C (second compound 0.03 µM, first compound 0.01 µM) 91.5% | viability, T/C (second compound 0.03 µM, first compound 0.0316 µM) 74.6% | viability, T/C (second compound 0.03 µM, first compound 0.1 µM) 65.5% | viability, T/C (second compound 0.0949 µM, first compound 0.000316 µM) 137% | viability, T/C (second compound 0.0949 µM, first compound 0.001 µM) 56.1% | viability, T/C (second compound 0.0949 µM, first compound 0.00316 µM) 105% | viability, T/C (second compound 0.0949 µM, first compound 0.01 µM) 82.4% | viability, T/C (second compound 0.0949 µM, first compound 0.0316 µM) 90.6% | viability, T/C (second compound 0.0949 µM, first compound 0.1 µM) 87.5% | viability, T/C (second compound 0.3 µM, first compound 0.000316 µM) 103% | viability, T/C (second compound 0.3 µM, first compound 0.001 µM) 90.7% | viability, T/C (second compound 0.3 µM, first compound 0.00316 µM) 93.7% | viability, T/C (second compound 0.3 µM, first compound 0.01 µM) 97.3% | viability, T/C (second compound 0.3 µM, first compound 0.0316 µM) 75.4% | viability, T/C (second compound 0.3 µM, first compound 0.1 µM) 91.1% | viability, T/C (second compound 0.949 µM, first compound 0.000316 µM) 75.2% | viability, T/C (second compound 0.949 µM, first compound 0.001 µM) 92.3% | viability, T/C (second compound 0.949 µM, first compound 0.00316 µM) 108% | viability, T/C (second compound 0.949 µM, first compound 0.01 µM) 72.3% | viability, T/C (second compound 0.949 µM, first compound 0.0316 µM) 91.9% | viability, T/C (second compound 0.949 µM, first compound 0.1 µM) 95.8% | viability, T/C (second compound 3 µM, first compound 0.000316 µM) 70.2% | viability, T/C (second compound 3 µM, first compound 0.001 µM) 68.8% | viability, T/C (second compound 3 µM, first compound 0.00316 µM) 68.3% | viability, T/C (second compound 3 µM, first compound 0.01 µM) 74.2% | viability, T/C (second compound 3 µM, first compound 0.0316 µM) 107% | viability, T/C (second compound 3 µM, first compound 0.1 µM) 85.1%
> 100 nM: IC50 (curve of first compound, second compound 0.00949 µM) | IC50 (curve of first compound, second compound 0.03 µM) | IC50 (curve of first compound, second compound 0.0949 µM) | IC50 (curve of first compound, second compound 0.3 µM) | IC50 (curve of first compound, second compound 0.949 µM) | IC50 (curve of first compound, second compound 3 µM)

Cc1nc(N2CCC3(CC2)COC(C)C3N)c(CO)nc1Sc1ccnc(N)c1Cl (stereo unspecified) + Cc1c(S(C)(=O)=O)c(-c2cc(F)cc(N3CCN(c4ccc(NS(=O)(=O)c5ccc(NC(CCN6CCC(C(=O)OCCCP(=O)(O)O)CC6)CSc6ccccc6)c(S(=O)(=O)C(F)(F)F)c5)cc4)CC3)c2)c(-c2ccc(Cl)cc2)n1C(C)C
inactive: viability, T/C (second compound 0.0316 µM, first compound 0.00949 µM) 90.4% | viability, T/C (second compound 0.0316 µM, first compound 0.03 µM) 106% | viability, T/C (second compound 0.0316 µM, first compound 0.0949 µM) 47.1% | viability, T/C (second compound 0.0316 µM, first compound 0.3 µM) 73.5% | viability, T/C (second compound 0.0316 µM, first compound 0.949 µM) 68% | viability, T/C (second compound 0.0316 µM, first compound 3 µM) 39.9% | viability, T/C (second compound 0.1 µM, first compound 0.00949 µM) 109% | viability, T/C (second compound 0.1 µM, first compound 0.03 µM) 105% | viability, T/C (second compound 0.1 µM, first compound 0.0949 µM) 78.5% | viability, T/C (second compound 0.1 µM, first compound 0.3 µM) 63.9% | viability, T/C (second compound 0.1 µM, first compound 0.949 µM) 47.3% | viability, T/C (second compound 0.1 µM, first compound 3 µM) 43.6% | viability, T/C (second compound 0.316 µM, first compound 0.00949 µM) 81.5% | viability, T/C (second compound 0.316 µM, first compound 0.03 µM) 92.9% | viability, T/C (second compound 0.316 µM, first compound 0.0949 µM) 68% | viability, T/C (second compound 0.316 µM, first compound 0.3 µM) 101% | viability, T/C (second compound 0.316 µM, first compound 0.949 µM) 68.4% | viability, T/C (second compound 0.316 µM, first compound 3 µM) 50.5% | viability, T/C (second compound 1 µM, first compound 0.00949 µM) 92.5% | viability, T/C (second compound 1 µM, first compound 0.03 µM) 68.5% | viability, T/C (second compound 1 µM, first compound 0.0949 µM) 52.5% | viability, T/C (second compound 1 µM, first compound 0.3 µM) 75.5% | viability, T/C (second compound 1 µM, first compound 0.949 µM) 43.2% | viability, T/C (second compound 1 µM, first compound 3 µM) 53.7% | viability, T/C (second compound 3.16 µM, first compound 0.00949 µM) 71.4% | viability, T/C (second compound 3.16 µM, first compound 0.03 µM) 95.6% | viability, T/C (second compound 3.16 µM, first compound 0.0949 µM) 67.6% | viability, T/C (second compound 3.16 µM, first compound 0.3 µM) 62.8% | viability, T/C (second compound 3.16 µM, first compound 0.949 µM) 74.8% | viability, T/C (second compound 3.16 µM, first compound 3 µM) 56.2% | viability, T/C (second compound 10 µM, first compound 0.00949 µM) 68.9% | viability, T/C (second compound 10 µM, first compound 0.03 µM) 86.4% | viability, T/C (second compound 10 µM, first compound 0.0949 µM) 61.1% | viability, T/C (second compound 10 µM, first compound 0.3 µM) 59.8% | viability, T/C (second compound 10 µM, first compound 0.949 µM) 64% | viability, T/C (second compound 10 µM, first compound 3 µM) 76.5%
2100 nM: IC50 (curve of first compound, second compound 0.0316 µM)
> 3000 nM: IC50 (curve of first compound, second compound 0.316 µM) | IC50 (curve of first compound, second compound 1 µM) | IC50 (curve of first compound, second compound 3.16 µM) | IC50 (curve of first compound, second compound 10 µM)
823 nM: IC50 (curve of first compound, second compound 0.1 µM)

C=CC(=O)N1CCN(c2nc(=O)n(-c3c(C)ccnc3C(C)C)c3nc(-c4c(O)cccc4F)c(F)cc23)C(C)C1 (stereo unspecified)
> 10000 nM: IC50 (curve of compound)
inactive: viability, T/C (compound 0.0316 µM) 97.6% and 65.2% and 101% | viability, T/C (compound 0.1 µM) 87.3% and 70.7% and 109% | viability, T/C (compound 0.316 µM) 105% and 85.9% and 110% | viability, T/C (compound 1 µM) 87.3% and 95.3% and 117% | viability, T/C (compound 3.16 µM) 82.4% and 70.7% and 96.5% | viability, T/C (compound 10 µM) 93.6% and 72% and 104%
